≈ marks a conversion by molar mass, not a printed value.
Experiments:
[1] = test system: Methicillin Resistant Staphylococcus aureus MRSA-32; assay: In-vitro MIC test (agar dilution), MRSA-32; assay type: cell-based; settings: Mueller Hinton agar, 24 hrs at 35° C.; for MIC: Staphylococcus aureus, MRSA, read-out: Minimum Inhibitory Concentrations (MIC) MRSA-32
From the text: (§1) The test methods used for verifying the antimicrobial action of compound within the scope of this invention are essentially the same as those described in PCT WO 95/25106, U.S. Pat. No. 5,668,286 and EP 0 750, 618 B1, with the difference that the strains of the organisms used for the MIC determinations in these patents and applications are Staphylococcus aureus ATCC 25923, Staphylococcus epidermidis ATCC 12828, Streptococcus pyogenes ATCC 19615.
(§2) The in-vitro MIC methods of test compounds were determined essentially as described in PCT WO 95/25106, U.S. Pat. No. 5,668,286 and EP 0 750 618 B1.
(§3) Overnight grown cultures of S. aureus organisms in Tryptic Soya broth were diluted in Mueller Hinton Broth to give optical density matching with MacFarland tube 0.5 standard. Cultures were further diluted 1:10 in Mueller Hinton broth. Using Denley's mutipoint inoculator, 10^4 cells were deposited on Mueller Hinton agar (Difco) containing range of 2 fold dilutions of test compounds. These plates were incubated for 24 hrs at 35° C. and MIC results recorded. MIC is defined as minimum drug concentration that inhibits test organisms. For determining MIC of test compounds against Streptococcus pneumoniae, Mueller Hinton agar containing 5% sheep blood was employed.

[2] = test system: Enterococcus faecalis ATCC 29212; assay: In-vitro MIC test (agar dilution), E. faecalis; assay type: cell-based; settings: ATCC29212, Mueller Hinton agar, 24 hrs at 35° C., read-out: Minimum Inhibitory Concentrations (MIC) E. faecalis
From the text: as §1, §2, §3

[3] = test system: Streptococcus pneumoniae ATCC 49619; assay: In-vitro MIC test (agar dilution, 5% sheep blood), S. pneumoniae; assay type: cell-based; settings: ATCC49619, Mueller Hinton agar containing 5% sheep blood, read-out: Minimum Inhibitory Concentrations (MIC) S. pneumoniae
From the text: as §1, §2, §3

[4] = test system: MRSA 32; assay: Murine assay procedure (systemic MRSA 32 infection, oral treatment); assay type: in vivo, swiss mice; settings: Staphylococcus aureus; oral administration, doses 1 hr and 4 hrs after infection; MRSA 32 infected mice; percentage survival on Day 7
Description: Oxazolidinone new chemical entities (NCEs) were evaluated for their in vivo efficacy in a murine infection caused by multi-drug resistant, methicillin resistant Staphylococcus aureus strain, referred to as MRSA 32, a clinical isolate obtained from a hospitalised patient. The procedure used for the murine assay is as follows:
Four weeks old swiss mice of 18-22 gm body weight were infected with MRSA 32 strain suspended in 5% Hog gastric Mucin. The infecting dose of bacteria was set at 1-2×10^8 CFU/animal. The infecting dose was administered in 0.5 ml volume injected into peritonial cavity of mice. The treatment with oxazolidinone NCEs was started one hour after infection by administering 100-200 μl of the suspensions of oxazolidinone compounds in 5% Tween 80 by oral gavage. A repeat dose was similarly administered 3 hrs later. Each oxazolidinone NCE was tested at 2-3 different dosages in the range of 2.5 mg/kg to 20 mg/kg. In each dose group 6 mice were included. As an infection control group 12 mice were infected with MRSA 32 strain without giving any treatment. Normally untreated infected mice die within 24 hrs. due to the systemic spread of infection through out the animal body. […] For compounds affording protection of MRSA infected mice, ED50 dosages were calculated on the basis of percentage survival on Day 7 after infection.
The in-vivo ED50 values using the test compounds were determined essentially by the method as described in PCT WO 95/25106, U.S. Pat. No. 5,668,286 and EP 0 750 618 B1.

[5] = Pharmacokinetic study, single oral dose in beagle dog; assay type: in vivo; settings: serum, single oral dose 5 mg/kg p.o., Compound No. 4 and linezolid in 5% Tween, other compounds in cyclodextrin; for AUC(0-t): read-out: AUC (0-24 hr); for concentration at 12 hr: read-out: C-12 hr
Description: (§4) Oral (5 mg/kg) and intravenous (5 mg/kg bolus) pharmacokinetic studies were done in dog. Blood samples were collected at time points of 0, 0.08 (not for oral), 0.25, 0.50, 1.0, 1.5, 2.0, 3.0, 4.0, 5.0, 6.0, 8.0, 10.0, 12.0 and 24.0 hours. To facilitate i.v. dosing and collection of blood samples, the dogs were implanted with cannula in cephalic vein. Serum obtained from blood samples was used for HPLC-based analysis.
(§5) Serum samples were extracted by solid phase extraction technique using Water's OASIS HLB cartridges. An HPLC-Diode array detection system was used for analysis. Prepared samples were chromatographed on a YMC-AM reversed phase column (150×4.6 mm ID; 5 μm) using an isocratic mobile phase acetate buffer (50 mmol ammonium acetate pH 6.6) acetonitrile, 66:34% v/v (for a representative compound of the invention, 68:32% v/v for compound Nos. 30, 3, 7 and 11 of U.S. Pat. No. 5,668,286, and 75:25% v/v for linezolid) at a flow rate of 1 ml/min, measured at λmax 254 nm. Independently prepared analytical standards and quality control samples were analyzed with each set of unknown samples.
The pharmacokinetics of a representative compound of the invention following single oral dose administration of the compound in beagle dog is shown in Table 2.

[6] = Pharmacokinetic study, single I.V. bolus dose in beagle dog; assay type: in vivo; settings: iv, single I.V. bolus dose 15 mg/kg (table title), Compound No. 4 and linezolid in 5% Tween, other compounds in cyclodextrin, serum; for concentration at 12 hr: read-out: C-12 hr; for AUC(0-t): read-out: AUC (0-24 hr)
Description: as §4, with “Blood” for “Oral (5 mg/kg) and intravenous (5 mg/kg bolus) pharmacokinetic studies were done in dog. Blood”
as §5
The pharmacokinetics of a representative compound of the invention following single I.V. bolus dose administration of the compound in beagle dog is shown in Table 3.

Compound | MIC [1] [µg/mL] | MIC [2] [µg/mL] | MIC [3] [µg/mL] | melting point [°C] | also measured
CC(=O)NC[C@H]1CN(c2ccc(N3CCC(CC#N)CC3)cc2)C(=O)O1 [Compound 2, (S)-N-{3-[4-(4-cyanomethyl-piperidin-1-yl)-phenyl]-2-oxo-oxazolidin-5-ylmethyl}-acetamide] | 2 (≈ 5.61 µM) | 2 (≈ 5.61 µM) | 2 (≈ 5.61 µM) | – | ED50 [4]: 20 mg/kg
N#CCC1CCN(c2ccc(N3C[C@H](CNC(=O)C(F)(F)F)OC3=O)cc2F)CC1 [Compound 8, (S)-N-{3-[4-(4-cyanomethyl-piperidin-1-yl)-3-fluoro-phenyl]-2-oxo-oxazolidin-5-ylmethyl}-trifluoroacetamide] | 4 (≈ 9.34 µM) | 8 (≈ 18.7 µM) | 2 (≈ 4.67 µM) | – | –
CC(C)COC(=O)NC[C@H]1CN(c2ccc(N3CCC(CC#N)CC3)c(F)c2)C(=O)O1 [Compound 10, (S)-N-{3-[4-(4-cyanomethyl-piperidin-1-yl)-3-fluoro-phenyl]-2-oxo-oxazolidin-5-ylmethyl}-isobutylcarbamate] | – | – | – | – | Minimum Inhibitory Concentrations (MIC) MRSA-32 [1]: >16.0 µg/mL
CC(=O)NC[C@H]1CN(c2ccc(N3CCC(CC#N)C(C)C3)c(F)c2)C(=O)O1 (stereo partly drawn) [Compound 12, (S)-N-{3-[4-((4-cyanomethyl)-3-methyl-piperidin-1-yl)-3-fluoro-phenyl]-2-oxo-oxazolidin-5-ylmethyl}-acetamide] | 2 (≈ 5.15 µM) | 2 (≈ 5.15 µM) | 2 (≈ 5.15 µM) | 148 to 149 | –
CC(=O)NC[C@H]1CN(c2ccc(N3CCC(C(C)C#N)CC3)c(F)c2)C(=O)O1 (stereo partly drawn) [Compound 14, (S)-N-{3-[4-(4-(1-cyanoethyl)-piperidin-1-yl)-3-fluoro-phenyl]-2-oxo-oxazolidin-5-ylmethyl}-acetamide] | 2 (≈ 5.15 µM) | 2 (≈ 5.15 µM) | 2 (≈ 5.15 µM) | 147 to 148 | –
CCC(C#N)C1CCN(c2ccc(N3C[C@H](CNC(C)=O)OC3=O)cc2F)CC1 (stereo partly drawn) [Compound 15, (S)-N-{3-[4-(4-(1-cyanopropyl)-piperidin-1-yl)-3-fluoro-phenyl]-2-oxo-oxazolidin-5-ylmethyl}-acetamide] | 4 (≈ 9.94 µM) | 4 (≈ 9.94 µM) | 2 (≈ 4.97 µM) | 185 to 186 | –
CC(=O)NC[C@H]1CN(c2ccc(N3CCC(O)CC3)c(F)c2)C(=O)O1 [U.S. Pat. No. 5,668,286 (No. 3), (S)-N-{3-[3-fluoro-4-(4-hydroxy-piperidin-1-yl)-phenyl]-2-oxo-oxazolidin-5-ylmethyl}-acetamide] | – | – | – | – | half-life [5]: 1.37 h; AUC(0-t) [5]: 2740 ng·h/mL; Cmax [5]: 1520 ng/mL; concentration at 12 hr [5]: 0 ng/mL; Cmax [6]: 6190 ng/mL; concentration at 12 hr [6]: 0 ng/mL; half-life [6]: 0.98 h; AUC(0-t) [6]: 7530 ng·h/mL
CC(=O)NC[C@H]1CN(c2ccc(N3CCC(=O)CC3)c(F)c2)C(=O)O1 [U.S. Pat. No. 5,668,286 (No. 7), (S)-N-{3-[3-fluoro-4-(4-oxo-piperidin-1-yl)-phenyl]-2-oxo-oxazolidin-5-ylmethyl}-acetamide] | – | – | – | – | concentration at 12 hr [5]: 0 ng/mL; concentration at 12 hr [6]: 0 ng/mL
CC(=O)NC[C@H]1CN(c2ccc(N3CCC(=NO)CC3)c(F)c2)C(=O)O1 [U.S. Pat. No. 5,668,286 (No. 11), (S)-N-{3-[3-fluoro-4-(4-hydroxyimino-piperidin-1-yl)-phenyl]-2-oxo-oxazolidin-5-ylmethyl}-acetamide] | – | – | – | – | concentration at 12 hr [5]: 0 ng/mL; Cmax [6]: 4150 ng/mL; concentration at 12 hr [6]: 0 ng/mL; half-life [6]: 0.16 h; AUC(0-t) [6]: 1320 ng·h/mL
CC(=O)NC[C@H]1CN(c2ccc(N3CCC4(CC3)OCCO4)c(F)c2)C(=O)O1 [U.S. Pat. No. 5,668,286 (No. 30), (S)-N-{3-[4-(1,4-dioxa-8-aza-spiro[4.5]dec-8-yl)-3-fluoro-phenyl]-2-oxo-oxazolidin-5-ylmethyl}-acetamide] | – | – | – | – | half-life [5]: 6.68 h; AUC(0-t) [5]: 47200 ng·h/mL; Cmax [5]: 5310 ng/mL; concentration at 12 hr [5]: 1840 ng/mL; Cmax [6]: 7640 ng/mL; concentration at 12 hr [6]: 1190 ng/mL; half-life [6]: 6.71 h; AUC(0-t) [6]: 45100 ng·h/mL

More lines, main results first:

MIC [1] [µg/mL] | MIC [2] [µg/mL] | MIC [3] [µg/mL] | melting point [°C] | Compound | also measured
4 (≈ 9.6 µM) | 4 (≈ 9.6 µM) | 4 (≈ 9.6 µM) | 180 to 182 | CCCC(C#N)C1CCN(c2ccc(N3C[C@H](CNC(C)=O)OC3=O)cc2F)CC1 (stereo partly drawn) [Compound 16, (S)-N-{3-[4-(4-(1-cyanobutyl)-piperidin-1-yl)-3-fluoro-phenyl]-2-oxo-oxazolidin-5-ylmethyl}-acetamide] | –
2 (≈ 4.95 µM) | 2 (≈ 4.95 µM) | 2 (≈ 4.95 µM) | 182 to 184 | CC(=O)NC[C@H]1CN(c2ccc(N3CCC(C(C#N)CO)CC3)c(F)c2)C(=O)O1 (stereo partly drawn) [Compound 17, (S)-N-{3-[4-(4-(1-cyano-2-hydroxyethyl)-piperidin-1-yl)-3-fluoro-phenyl]-2-oxo-oxazolidin-5-ylmethyl}-acetamide] | ED50 [4]: 20 mg/kg
– | – | – | 198 to 200 | CC(=O)NC[C@H]1CN(c2ccc(N3CCC(C(C#N)C(=O)O)CC3)c(F)c2)C(=O)O1 (stereo partly drawn) [Compound 18, (S)-N-{3-[4-(4-(1-cyano-1-hydroxycarbonyl)-piperidin-1-yl)-3-fluoro-phenyl]-2-oxo-oxazolidin-5-ylmethyl}-acetamide] | –
2 (≈ 5.01 µM) | 2 (≈ 5.01 µM) | 1 (≈ 2.5 µM) | 223 to 225 | CC(=O)NC[C@H]1CN(c2ccc(N3CCC(C(C#N)C#N)CC3)c(F)c2)C(=O)O1 [Compound 19, (S)-N-{3-[4-(4-(1,1-dicyanomethyl)-piperidin-1-yl)-3-fluoro-phenyl]-2-oxo-oxazolidin-5-ylmethyl}-acetamide] | –

From US20040235900A1, “Antimicrobial oxazolifinones with improved pharmacokinetic profile and safety advantages” (priority 2002, published 2004)
